Legend:
Type in all cases: physicochemical
[1] = Lipid nanoparticle size and polydispersity by dynamic light scattering; conditions: LNP of lipid/DSPC/cholesterol/PEG-lipid 50:10:38.5:1.5 encapsulating hEPO mRNA
In short: (§1)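 LNPs made from ionizable lipid/DSPC/cholesterol/PEG-lipid (50:10:38.5:1.5) and mRNA in citrate pH 4 by microfluidic mixing, lipid:mRNA about 10:1–30:1 w/w, then dialysed into DPBS and filtered. Size and PDI measured by DLS in backscatter mode; encapsulation efficiency measured by RiboGreen assay.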

[2] = Encapsulation efficiency of lipid nanoparticles, Quant-it Ribogreen RNA assay; conditions: LNP of lipid/DSPC/cholesterol/PEG-lipid 50:10:38.5:1.5 encapsulating hEPO mRNA
In short: as §1

[3] = Apparent pKa of LNP formulations, TNS fluorescence assay; conditions: LNP cationic lipid/DSPC/cholesterol/DMG-PEG 50/10/38.5/1.5 mol %
Experimental: As reported in literature, the apparent pKa of LNP formulations correlates with the delivery efficiency of LNPs for nucleic acids in vivo. The apparent pKa of each formulation was determined using an assay based on fluorescence of 2-(p-toluidino)-6-napthalene sulfonic acid (TNS). LNP formulations comprising of cationic lipid/DSPC/cholesterol/DMG-PEG (50/10/38.5/1.5 mol %) in PBS were prepared as described above. TNS was prepared as a 300 μM stock solution in distilled water. LNP formulations were diluted to 0.1 mg/mL total lipid in 3 mL of buffered solutions containing 50 mM sodium citrate, 50 mM sodium phosphate, 50 mM sodium borate, and 30 mM sodium chloride where the pH ranged from 3 to 9. An aliquot of the TNS solution was added to give a final concentration of […] and following vortex mixing fluorescence intensity was measured at room temperature in a Molecular Devices Spectramax iD3 spectrometer using excitation and mission wavelengths of 325 nm and 435 nm. A sigmoidal best fit analysis was applied to the fluorescence data and the pKa value was measured as the pH giving rise to half-maximal fluorescent intensity.

Row | Structure (SMILES) | polydispersity [1] | size (nm) [1] | Encapsulation Efficiency [2] | Apparent Pka [3]
1 | CCCCCCCCC(CCCCCCCC)CNC(=O)CCCCCN(CCN(CCCO)CCCCCC(=O)OCC(CCCCCCCC)CCCCCCCC)C1CCC1 [Compound 76] | 0.036 | 84.12 nm | 92.30% | 6.322
2 | CCCCCCCCC(CCCCCCCC)CNC(=O)CCCCCN(CCO)CCN(CCCCCC(=O)NCC(CCCCCCCC)CCCCCCCC)C1CCCCC1 [Compound 13] | 0.105 | 60.71 nm | 83.3% | 6.633
3 | CCCCCCCCC(CCCCCCCC)COC(=O)CCCCCN(CCO)CCN(CCCCCC(=O)OCC(CCCCCCCC)CCCCCCCC)Cc1ccccc1 [Compound 36] | 0.093 | 49.69 nm | 89.3% | 5.802
4 | CCCCCCCCCCCCCCN(CCCCCCCCCCCCCC)C(=O)CCCCCN(CCO)CCN(CCCCCC(=O)OCCCCCCCCCCC)C1CCCCC1 [Compound 89] | 0.086 | 81.46 nm | 89.05% | 6.745
5 | CCCCCCCCC(CCCCCCCC)COC(=O)CCCCCN(C)CCN(CCCCCC(=O)OCC(CCCCCCCC)CCCCCCCC)C1CCC(O)CC1 (centres unmarked) [Compound 51] | 0.028 | 83.92 nm | 97.0% | 6.579
6 | CCCCCCCCC(CCCCCCCC)CNC(=O)CCCCCN(CCO)CCN(CCCCCC(=O)OCC(CCCCCCCC)CCCCCCCC)C1CCC1 [Compound 15] | 0.022 | 65.95 nm | 86.0% | 6.724
7 | CCCCCCCCCCCOC(=O)CCCCCN(CCN(CCO)CCCCCC(=O)OCC(CCCCCC)CCCCCCCC)C1CCC1 (centres unmarked) [Compound 4] | 0.076 | 90.8 nm | 91.9% | 6.709
8 | CCCCCCCCCCCOC(=O)CCCCCN(CCN(CCO)CCCCCC(=O)OCC(CCCCCC)CCCCCCCC)C1CC1 (centres unmarked) [Compound 3] | 0.131 | 73.33 nm | 93.6% | 6.32
9 | CCCCCCCCCCCOC(=O)CCCCCN(CCN(CCO)CCCCCC(=O)OCC(CCCCCC)CCCCCCCC)C1CCCC1 (centres unmarked) [Compound 5] | 0.073 | 99.12 nm | 92.7% | 6.56
10 | CCCCCCCCC(CCCCCCCC)CNC(=O)CCCCCN(CC=C(C)C)CCN(CCO)CCCCCC(=O)OCC(CCCCCCCC)CCCCCCCC [Compound 121] | 0.077 | 70.01 nm | 93.23% | 6.583
11 | CCCCCCCCC(CCCCCCCC)COC(=O)CCCCCN(CCO)CCN(CCCCCC(=O)OCC(CCCCCCCC)CCCCCCCC)Cc1ccncc1 [Compound 37] | 0.037 | 71.53 nm | 87.2% | 6.988
12 | CCCCCCCCC(CCCCCCCC)CNC(=O)CCCCCN(CCO)CCN(CCCCCC(=O)OCC(CCCCCCCC)CCCCCCCC)C1CCCCC1 [Compound 23] | 0.039 | 57.5 nm | 95.5% | 6.686
13 | CCCCCCCCCCCOC(=O)CCCCCN(CCN(CCO)CCCCCCCC(=O)OCC(CCCCCCCC)CCCCCCCC)C1CCCCC1 [Compound 48] | 0.037 | 73.5 nm | 92.1% | 6.295
14 | CCCCCCCCC(CCCCCC)COC(=O)CCCCCN(CCO)CCN(CCCCC(COC(=O)CCCCCCC)COC(=O)CCCCCCC)C1CCCC1 (centres unmarked) [Compound 137] | 0.040 | 67.32 nm | 89.36% | 6.494
15 | CCCCCCCCC(CCCCCCCC)COC(=O)CCCCCN(CCO)CCN(CCCCCC(=O)OCC(CCCCCCCC)CCCCCCCC)C1CCC(C)(C)CC1 [Compound 31] | 0.092 | 54.55 nm | 88.2% | 5.708
16 | CCCCCCCCC(CCCCCCCC)COC(=O)CCCCCN(CC=C(C)C)CCN(CCO)CCCCCC(=O)OCC(CCCCCCCC)CCCCCCCC [Compound 42] | 0.046 | 66.04 nm | 90.1% | 6.159

Continued, values first:

Row | polydispersity [1] | size (nm) [1] | Encapsulation Efficiency [2] | Apparent Pka [3] | Structure (SMILES)
17 | 0.054 | 84.18 nm | 92.81% | 6.593 | CCCCCCCCCCCOC(=O)CCCCCN(CCN(CCO)CCCCCC(OCCCCCCCC)OCCCCCCCC)C1CCC1 [Compound 200]
18 | 0.093 | 67.92 nm | 88.53% | 6.545 | CCCCCCCCC(CCCCCC)CNC(=O)CCCCCCCN(CCO)CCN(CCCCC(COC(=O)CCCCCCC)COC(=O)CCCCCCC)C1CCCCC1 (centres unmarked) [Compound 235]
19 | 0.125 | 131.30 nm | 75.66% | 6.183 | CCCCCCC(=O)OCC(CCCCN(CCO)CCN(CCCCC(COC(=O)CCCCCC)COC(=O)CCCCCC)C1CCC1)COC(=O)CCCCCC [Compound 165]
20 | 0.06 | 79.56 nm | 91.52% | 6.49 | CCCCCCCCC(CCCCCC)CNC(=O)CCCCCN(CCCCCO)CCN(CCCCC(COC(=O)CCCCCCC)COC(=O)CCCCCCC)C1CCCCCCC1 (centres unmarked) [Compound 210]
21 | 0.052 | 76.91 nm | 91.15% | 6.463 | CCCCCCCCC(CCCCCC)CNC(=O)CCCCCCN(CCO)CCN(CCCCC(COC(=O)CCCCCCC)COC(=O)CCCCCCC)C1CCCCCCC1 (centres unmarked) [Compound 233]
22 | 0.162 | 80.14 nm | 94.30% | 6.858 | CCCCCCCCC(CCCCCC)CNC(=O)CCCCCN(CCCCN(CCO)CCCCC(COC(=O)CCCCCCC)COC(=O)CCCCCCC)C1CCCCCCC1 (centres unmarked) [Compound 199]
23 | 0.048 | 73.95 nm | 93.09% | 6.437 | CCCCCCCCC(CCCCCCCC)COC(=O)OCCCCCN(CCO)CCN(CCCCCNC(=O)CC(CCCCCC)CCCCCCCC)C1CCCCCC1 (centres unmarked) [Compound 153]
24 | 0.056 | 96.32 nm | 89.15% | 6.337 | CCCCCCCC(=O)OCC(COCCN(CCO)CCN(CCOCC(COC(=O)CCCCCCC)COC(=O)CCCCCCC)C1CCC1)COC(=O)CCCCCCC [Compound 178]
25 | 0.033 | 67.78 nm | 90.80% | 6.542 | CCCCCCCCC(CCCCCC)CNC(=O)CCCCCCCN(CCO)CCN(CCCCC(COC(=O)CCCCCCC)COC(=O)CCCCCCC)C1CCCCCCC1 (centres unmarked) [Compound 215]
26 | 0.039 | 95.78 nm | 87.79% | 6.608 | CCCCCCCCC(CCCCCC)CNC(=O)CCCCCN(CCCCCO)CCN(CCCCC(COC(=O)CCCCCCC)COC(=O)CCCCCCC)C1CCCCC1 (centres unmarked) [Compound 209]
27 | 0.13 | 78.4 nm | 88.81% | 6.699 | CCCCCCCCC(CCCCCC)COC(=O)CCCCCN(CCCCN(CCO)CCCCC(COC(=O)CCCCCCC)COC(=O)CCCCCCC)C1CC1 (centres unmarked) [Compound 190]
28 | 0.153 | 104.2 nm | 83.82% | 6.925 | CCCCCCCCC(CCCCCC)CNC(=O)CCCCCN(CCCCN(CCO)CCCCC(COC(=O)CCCCCCC)COC(=O)CCCCCCC)C1CC1 (centres unmarked) [Compound 195]
29 | 0.07 | 99.33 nm | 93.71% | 6.316 | CCCCCCCCCCCOC(=O)CCCCCN(CCN(CCO)CCCCC(COC(=O)CCCCCCC)COC(=O)CCCCCCC)C1CCCCC1 [Compound 221]
30 | 0.057 | 69.16 nm | 90.39% | 6.687 | CCCCCCCCC(CCCCCC)CNC(=O)CCCCCN(CCO)CCN(CCCCC(COC(=O)CCCCCCC)COC(=O)CCCCCCC)C1CCCCCC1 (centres unmarked) [Compound 143]
31 | 0.172 | 129.75 nm | 90.65% | 7.098 | CCCCCCCC(=O)OCC(CCCCN(CCC)CCCCN(CCO)CCCCC(COC(=O)CCCCCCC)COC(=O)CCCCCCC)COC(=O)CCCCCCC [Compound 184]
32 | 0.071 | 87.97 nm | 87.94% | 6.657 | CCCCCCCCC(CCCCCC)CNC(=O)CCCCCN(CCOCCO)CCN(CCCCC(COC(=O)CCCCCCC)COC(=O)CCCCCCC)C1CCCCCC1 (centres unmarked) [Compound 207]

From US20230348362A1, “LIPID COMPOUNDS AND LIPID NANOPARTICLE COMPOSITIONS” (Suzhou Abogen Biosciences Co., Ltd., priority 2021, published 2023)
